Test results as given in US20240114903A1, “SYNERGISTIC MIXTURES COMPRISING PYRETHRUM FOR ARTHROPOD TOXICITY AND REPELLENCY” (University of Florida Research Foundation, Incorporated, priority 2021, published 2024).
Structures can show the parent of a compound that is named as a salt. Where two headings read alike, the source gives them in different places.

Key:
[1] = system: Orlando strain Aedes aegypti females; conditions: essential oil or PBO alone, topical
Protocol: Plant essential oils were obtained from Berje, Inc. (Carteret, NJ, USA). […] Sucrose for sugar water was obtained from Domino (Baltimore, MD, USA).
Pupae were provided by the USDA prior to experiments.
J. Med. Entomol. […] Topical applications were performed by anesthetizing adult female mosquitoes on ice for 5 min, and then placing them on a cold, glass Petri dish to prevent reanimation. A Whatman No. 2 filter paper was used to prevent mosquitoes from coming in contact with excess condensation. A 0.2 μL volume of each treatment was applied to the pronotum of each mosquito using a Hamilton (Reno, NV, USA) repeating applicator with a gastight Hamilton syringe and placed in 470 mL deli paper cups. […] Ten mosquitoes were treated for each concentration representing one replicate, and at least three different cohorts of mosquitoes were used for each concentration in an effort to control for biological variability in the mosquitoes produced by the Orlando colony. A cohort was defined as a distinct rearing group (i.e., adult mosquitoes obtained from distinct batches of eggs placed in water to initiate development each week). Controls were performed using the vehicle, ethanol. Tulle fabric, fastened to the cup with a deli cup lid rim (center removed), was used to keep mosquitoes from escaping. Deli cups containing ten treated mosquitoes per concentration per replicate were placed in an incubator for the remainder of the experimental interval and kept at the same temperature and light cycle as during rearing. Knockdown, defined as the inability to fly or maintain normal standing posture, was recorded at 1 h, and mortality was recorded at 24 h. Mortality was defined as no movement, even after gently tapping the cup several times to assess response.
VI. Potentiation and antagonism of organophosphorus and carbamate insecticides. Econ. Entomol. […] To compare effects at discrete doses to one another or between those and control, an ANOVA (α=0.05) with a Tukey's post-test was used with an α value of 0.05.

[2] = system: female Aedes aegypti mosquitoes; type: in vivo; conditions: screened individually at the sublethal concentrations used in the mixtures (TCA 10, TFA 50 μg/cm^2)

SMILES	1 h % Knockdown ± SE, Synergist ([1]; 2 μg/insect) [%]	24 h % Mortality ± SE, Synergist ([1]; 2 μg/insect) [%]	1 h % Knockdown ± SE, Synergist ([1]; 10 μg/insect) [%]	24 h % Mortality ± SE, Synergist ([1]; 10 μg/insect, listed as Piperonyl butoxide (PBO))	toxicity by themselves [2]
CCCCOCCOCCOCc1cc2c(cc1CCC)OCO2 [PBO, Piperonyl butoxide]	6.7 ± 3.7	6.7 ± 2.4	21.7 ± 4	statistically significant	–
CC(C)=CC1C(C(=O)O)C1(C)C (stereo not drawn) [TCA, 1R-trans-chrysanthemic acid]	–	–	–	–	no toxicity
CC1(C)[C@H](C=C(Cl)Cl)[C@H]1C(=O)O [TFA, (1R,3S)-3-(2,2-dichloroethenyl)-2,2-dimethylcyclopropanecarboxylic acid]	–	–	–	–	no toxicity
